Assay results published in patent US10710978B2, “STK4 inhibitors for treatment of hematologic malignancies” (Dana-Farber Cancer Institute, Inc., priority 2015, dated 2020).
Like-named read-outs stand apart in the source and are kept apart here.

Key:
Test in all cases: KiNativ assay
Type in all cases: binding
[1] = tested on: MAP2K1, MAP2K2; conditions: 10 μM, H929 live cell
Description: (§1) Biochemical IC50s of the compounds of the present disclosure against various kinases were measured in a KiNativ assay. Compounds were screened in duplicate at 10 μM in H929 live cell. IC50 was measured via Mass spectroscopy (MS).

[2] = tested on: FYN, SRC, YES; conditions: H929 live cell
Description: as §1

[3] = tested on: CDK11, CDK8; conditions: H929 live cell
Description: as §1

[4] = biological target: MST1 (Homo sapiens (Human), UniProt Q13043); conditions: H929 live cell
Chain of MST1 (Q13043 whole entry): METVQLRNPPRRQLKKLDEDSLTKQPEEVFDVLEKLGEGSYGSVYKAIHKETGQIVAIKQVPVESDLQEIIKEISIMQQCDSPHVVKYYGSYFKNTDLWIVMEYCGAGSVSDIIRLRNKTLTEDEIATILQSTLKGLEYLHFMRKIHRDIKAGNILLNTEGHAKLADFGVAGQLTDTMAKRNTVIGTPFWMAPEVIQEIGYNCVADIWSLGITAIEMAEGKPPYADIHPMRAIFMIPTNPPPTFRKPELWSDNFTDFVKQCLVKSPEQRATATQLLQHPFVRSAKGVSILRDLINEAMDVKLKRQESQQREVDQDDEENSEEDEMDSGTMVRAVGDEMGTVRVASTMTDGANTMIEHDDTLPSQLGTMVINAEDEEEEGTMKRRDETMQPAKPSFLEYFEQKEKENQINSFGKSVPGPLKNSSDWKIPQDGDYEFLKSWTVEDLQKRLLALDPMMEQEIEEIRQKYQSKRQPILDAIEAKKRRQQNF
Description: as §1

[5] = biological target: TLK1 (Homo sapiens (Human), UniProt Q9UKI8); conditions: H929 live cell
Description: as §1

[6] = tested on: AMPKa1, AMPKa2; conditions: H929 live cell
Description: as §1

[7] = biological target: PKD2 (Homo sapiens (Human), UniProt Q9BZL6); conditions: H929 live cell
Description: as §1

[8] = tested on: NEK6, NEK7; conditions: H929 live cell
Description: as §1

[9] = biological target: NuaK2 (Homo sapiens (Human), UniProt Q9H093); conditions: H929 live cell
Chain of NuaK2 (Q9H093 whole entry): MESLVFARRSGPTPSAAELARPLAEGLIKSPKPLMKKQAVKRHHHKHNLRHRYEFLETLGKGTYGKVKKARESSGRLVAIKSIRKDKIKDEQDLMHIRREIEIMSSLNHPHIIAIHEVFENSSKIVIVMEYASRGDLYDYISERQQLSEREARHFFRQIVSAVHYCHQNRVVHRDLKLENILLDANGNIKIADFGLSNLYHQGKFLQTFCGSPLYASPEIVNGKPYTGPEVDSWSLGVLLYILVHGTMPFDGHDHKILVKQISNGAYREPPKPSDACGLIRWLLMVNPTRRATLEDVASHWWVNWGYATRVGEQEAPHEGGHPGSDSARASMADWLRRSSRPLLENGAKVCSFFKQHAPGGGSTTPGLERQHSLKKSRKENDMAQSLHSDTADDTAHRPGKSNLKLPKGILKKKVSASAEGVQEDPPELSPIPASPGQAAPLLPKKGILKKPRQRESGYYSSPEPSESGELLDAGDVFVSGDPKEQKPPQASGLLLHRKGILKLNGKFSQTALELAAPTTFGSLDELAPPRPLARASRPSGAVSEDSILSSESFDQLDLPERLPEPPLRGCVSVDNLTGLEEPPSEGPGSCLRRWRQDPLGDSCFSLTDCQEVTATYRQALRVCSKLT
Description: as §1

[10] = biological target: TBK1 (Homo sapiens (Human), UniProt Q9UHD2); conditions: H929 live cell
Chain of TBK1 (Q9UHD2 whole entry): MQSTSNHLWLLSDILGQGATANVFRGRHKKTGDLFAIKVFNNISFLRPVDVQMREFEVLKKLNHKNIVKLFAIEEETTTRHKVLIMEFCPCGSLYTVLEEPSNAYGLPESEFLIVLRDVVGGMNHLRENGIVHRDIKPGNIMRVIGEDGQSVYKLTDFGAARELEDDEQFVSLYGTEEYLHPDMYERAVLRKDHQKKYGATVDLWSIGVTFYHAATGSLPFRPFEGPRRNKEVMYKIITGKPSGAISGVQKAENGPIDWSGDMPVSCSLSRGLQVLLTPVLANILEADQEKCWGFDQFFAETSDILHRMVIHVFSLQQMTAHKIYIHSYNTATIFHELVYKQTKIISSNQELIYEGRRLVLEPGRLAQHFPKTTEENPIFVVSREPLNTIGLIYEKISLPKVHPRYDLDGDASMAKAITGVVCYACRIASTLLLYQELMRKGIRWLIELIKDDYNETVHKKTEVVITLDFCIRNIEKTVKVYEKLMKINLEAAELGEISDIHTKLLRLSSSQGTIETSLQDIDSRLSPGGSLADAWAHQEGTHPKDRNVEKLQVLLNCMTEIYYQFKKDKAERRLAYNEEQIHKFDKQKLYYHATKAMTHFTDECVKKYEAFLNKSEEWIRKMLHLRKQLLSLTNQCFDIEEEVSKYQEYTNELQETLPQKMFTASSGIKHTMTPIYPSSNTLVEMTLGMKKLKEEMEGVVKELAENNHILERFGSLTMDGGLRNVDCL
Description: as §1

[11] = tested on: ZC1/HGK, ZC2/TNIK, ZC3/MINK; conditions: H929 live cell
Description: as §1

[12] = biological target: NEK7 (Homo sapiens (Human), UniProt Q8TDX7); conditions: H929 live cell
Description: as §1

[13] = biological target: CaMK2d (Homo sapiens (Human), UniProt Q13557); conditions: H929 live cell
Description: as §1

[14] = biological target: TAO2 (Homo sapiens (Human), UniProt Q9UL54); conditions: H929 live cell
Description: as §1

[15] = biological target: PIP5K3 (Homo sapiens (Human), UniProt Q9Y2I7); conditions: H929 live cell
Description: as §1

[16] = biological target: NEK3 (Homo sapiens (Human), UniProt P51956); conditions: H929 live cell
Chain of NEK3 (P51956 whole entry): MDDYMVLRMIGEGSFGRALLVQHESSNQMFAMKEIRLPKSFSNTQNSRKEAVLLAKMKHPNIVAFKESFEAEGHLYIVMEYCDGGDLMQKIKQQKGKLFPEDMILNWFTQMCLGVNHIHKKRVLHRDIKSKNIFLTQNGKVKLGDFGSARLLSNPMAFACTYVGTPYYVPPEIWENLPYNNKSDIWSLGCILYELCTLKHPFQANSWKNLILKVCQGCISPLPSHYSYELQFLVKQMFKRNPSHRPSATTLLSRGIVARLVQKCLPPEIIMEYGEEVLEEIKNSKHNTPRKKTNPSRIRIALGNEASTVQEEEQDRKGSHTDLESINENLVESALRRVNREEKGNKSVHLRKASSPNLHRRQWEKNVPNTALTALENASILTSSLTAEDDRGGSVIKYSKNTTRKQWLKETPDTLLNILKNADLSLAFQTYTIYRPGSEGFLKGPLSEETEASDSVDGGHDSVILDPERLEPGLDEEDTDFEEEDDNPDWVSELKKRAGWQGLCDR
Description: as §1

[17] = biological target: CSK (Homo sapiens (Human), UniProt P41240); conditions: H929 live cell
Chain of CSK (P41240 whole entry): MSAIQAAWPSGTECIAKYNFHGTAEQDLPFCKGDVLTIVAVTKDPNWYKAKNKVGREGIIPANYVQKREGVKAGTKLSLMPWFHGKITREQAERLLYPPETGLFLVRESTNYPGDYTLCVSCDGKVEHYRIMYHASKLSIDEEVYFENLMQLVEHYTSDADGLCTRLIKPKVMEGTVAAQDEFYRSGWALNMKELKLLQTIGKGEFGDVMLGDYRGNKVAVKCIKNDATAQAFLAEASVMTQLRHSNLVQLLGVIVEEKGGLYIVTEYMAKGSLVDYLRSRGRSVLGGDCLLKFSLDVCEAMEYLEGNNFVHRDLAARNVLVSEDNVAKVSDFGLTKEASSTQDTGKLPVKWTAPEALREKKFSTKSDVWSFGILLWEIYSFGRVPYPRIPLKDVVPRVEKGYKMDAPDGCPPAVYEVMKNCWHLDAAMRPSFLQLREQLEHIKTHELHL
Description: as §1

[18] = biological target: TLK2 (Homo sapiens (Human), UniProt Q86UE8); conditions: H929 live cell
Description: as §1

[19] = biological target: CaMK1d (Homo sapiens (Human), UniProt Q8IU85); conditions: H929 live cell
Chain of CaMK1d (Q8IU85 whole entry): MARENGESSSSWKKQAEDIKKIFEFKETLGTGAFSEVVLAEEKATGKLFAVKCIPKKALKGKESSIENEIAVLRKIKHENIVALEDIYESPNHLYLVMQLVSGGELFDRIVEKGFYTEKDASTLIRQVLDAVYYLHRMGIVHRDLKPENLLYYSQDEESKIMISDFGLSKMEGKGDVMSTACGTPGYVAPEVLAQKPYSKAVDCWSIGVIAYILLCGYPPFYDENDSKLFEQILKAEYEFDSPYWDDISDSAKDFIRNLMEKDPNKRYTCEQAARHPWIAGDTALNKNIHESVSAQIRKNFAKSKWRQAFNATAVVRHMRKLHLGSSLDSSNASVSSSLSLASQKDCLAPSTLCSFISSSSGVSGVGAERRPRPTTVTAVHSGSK
Description: as §1

[20] = biological target: JAK1 domain1 (Homo sapiens (Human), UniProt P23458); conditions: H929 live cell
Description: as §1

[21] = biological target: MPSK1 (Homo sapiens (Human), UniProt O75716); conditions: H929 live cell
Chain of MPSK1 (O75716 whole entry): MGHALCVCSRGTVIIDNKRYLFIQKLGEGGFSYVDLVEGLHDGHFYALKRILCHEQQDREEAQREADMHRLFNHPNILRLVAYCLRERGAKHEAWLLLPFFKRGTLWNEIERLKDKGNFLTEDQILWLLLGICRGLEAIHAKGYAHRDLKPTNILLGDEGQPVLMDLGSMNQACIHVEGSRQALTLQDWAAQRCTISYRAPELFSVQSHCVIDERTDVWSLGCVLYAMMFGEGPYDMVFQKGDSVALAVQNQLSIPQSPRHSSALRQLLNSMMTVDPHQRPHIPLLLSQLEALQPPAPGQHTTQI
Description: as §1

[22] = biological target: IRAK4 (Homo sapiens (Human), UniProt Q9NWZ3); conditions: H929 live cell
Chain of IRAK4 (Q9NWZ3 whole entry): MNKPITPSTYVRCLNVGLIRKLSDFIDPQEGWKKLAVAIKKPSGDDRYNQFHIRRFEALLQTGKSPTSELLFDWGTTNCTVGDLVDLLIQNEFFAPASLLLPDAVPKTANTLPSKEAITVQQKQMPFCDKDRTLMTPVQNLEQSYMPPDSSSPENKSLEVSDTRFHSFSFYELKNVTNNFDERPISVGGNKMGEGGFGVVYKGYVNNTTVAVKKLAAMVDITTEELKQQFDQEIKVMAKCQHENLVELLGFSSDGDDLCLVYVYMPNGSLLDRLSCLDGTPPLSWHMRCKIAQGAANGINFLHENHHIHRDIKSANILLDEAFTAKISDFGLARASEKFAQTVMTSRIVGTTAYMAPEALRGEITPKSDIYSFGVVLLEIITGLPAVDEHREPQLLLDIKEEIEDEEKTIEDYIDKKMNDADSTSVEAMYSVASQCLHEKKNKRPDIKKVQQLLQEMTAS
Description: as §1

[23] = biological target: PFTAIRE1 (Homo sapiens (Human), UniProt O94921); conditions: H929 live cell
Chain of PFTAIRE1 (O94921 whole entry): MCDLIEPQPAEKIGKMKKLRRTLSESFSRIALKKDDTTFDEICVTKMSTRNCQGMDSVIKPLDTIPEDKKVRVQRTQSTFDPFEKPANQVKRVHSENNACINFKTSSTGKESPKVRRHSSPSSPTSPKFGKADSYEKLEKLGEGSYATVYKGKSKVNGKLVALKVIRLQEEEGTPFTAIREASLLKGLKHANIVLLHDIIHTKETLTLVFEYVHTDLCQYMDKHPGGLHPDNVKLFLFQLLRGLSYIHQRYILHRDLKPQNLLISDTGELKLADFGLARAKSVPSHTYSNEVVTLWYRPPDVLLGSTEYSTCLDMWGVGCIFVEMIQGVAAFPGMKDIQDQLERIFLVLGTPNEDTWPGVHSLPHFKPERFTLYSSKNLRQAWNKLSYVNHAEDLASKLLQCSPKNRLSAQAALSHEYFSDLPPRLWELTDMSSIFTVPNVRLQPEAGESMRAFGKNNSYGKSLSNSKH
Chain of PFTAIRE1 (Q8ND76 whole entry partner): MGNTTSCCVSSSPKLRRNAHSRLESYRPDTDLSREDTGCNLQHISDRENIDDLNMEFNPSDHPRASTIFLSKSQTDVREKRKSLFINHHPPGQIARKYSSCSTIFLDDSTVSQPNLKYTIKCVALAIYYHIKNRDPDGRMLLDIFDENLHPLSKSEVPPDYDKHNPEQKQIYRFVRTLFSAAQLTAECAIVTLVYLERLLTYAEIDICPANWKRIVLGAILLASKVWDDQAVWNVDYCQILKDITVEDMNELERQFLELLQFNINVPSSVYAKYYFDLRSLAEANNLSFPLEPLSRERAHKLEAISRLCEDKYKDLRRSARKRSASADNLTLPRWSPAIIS
Description: as §1

[24] = range class, read-out: % inhibition

For Nc1ncc(-c2ccc(NS(=O)(=O)C3CC3)cc2OC2CCCCC2)cc1-c1ccc2c(c1)CCNC2=O [Compound I-65, N-(4-(6-amino-5-(1-oxo-1,2,3,4-tetrahydroisoquinolin-6-yl)pyridin-3-yl)-3-(cyclohexyloxy)phenyl) cyclopropanesulfonamide], which “% inhibition” value ([1]; range class) is on record?
Its value is 0.0%.

What about the “% inhibition” value ([2]; 10 μM, range class) of the same molecule?
The value was 0.0%.

What about the “inhibition (10 μM)” value [2] of the same molecule?
Its value is −8.4%.

And the “% inhibition” value ([3]; 10 μM, range class)?
Its value is 0.0%.

What about the “inhibition (10 μM)” value [3] of the same molecule?
The value was 31.3%.

And the inhibition at 10 µM [4, 24]?
The inhibition at 10 µM was over 90%.

And the inhibition at 10 µM ([4]; read-out: inhibition (10 μM))?
The inhibition at 10 µM was 96.7%.

And the inhibition at 10 µM [5, 24]?
The inhibition at 10 µM was 0%.

What about the inhibition at 10 µM ([5]; read-out: inhibition (10 μM)) of the same molecule?
The inhibition at 10 µM was -1.2%.

And the “% inhibition” value ([6]; 10 μM, range class)?
Its value is 35-40%.

What about the “inhibition (10 μM)” value [6] of the same molecule?
The value was 39.0%.

And the inhibition at 10 µM [7, 24]?
The inhibition at 10 µM was 0%.

What about the inhibition at 10 µM ([7]; read-out: inhibition (10 μM)) of the same molecule?
The inhibition at 10 µM was -33.4%.

And the “% inhibition” value ([8]; 10 μM, range class)?
Its value is 0.0%.

What about the “inhibition (10 μM)” value [8] of the same molecule?
The value was −78.6%.

What about the inhibition at 10 µM [9, 24] of the same molecule?
Its inhibition at 10 µM is 35 to 40%.

What about the inhibition at 10 µM ([9]; read-out: inhibition (10 μM)) of the same molecule?
The inhibition at 10 µM was 48.7%.

And the inhibition at 10 µM [10, 24]?
The inhibition at 10 µM was 50 to 75%.

And the inhibition at 10 µM ([10]; read-out: inhibition (10 μM))?
The inhibition at 10 µM was 74.6%.

What about the “% inhibition” value ([11]; 10 μM, range class) of the same molecule?
Its value is over 90%.

And the “inhibition (10 μM)” value [11]?
Its value is 96.6%.

What about the inhibition at 10 µM [12, 24] of the same molecule?
Its inhibition at 10 µM is 0%.

And the inhibition at 10 µM ([12]; read-out: inhibition (10 μM))?
The inhibition at 10 µM was -80%.

What about the inhibition at 10 µM [13, 24] of the same molecule?
The inhibition at 10 µM was 0%.

And the inhibition at 10 µM ([13]; read-out: inhibition (10 μM))?
The inhibition at 10 µM was 4.2%.

What about the inhibition at 10 µM [14, 24] of the same molecule?
Its inhibition at 10 µM is 0%.

And the inhibition at 10 µM ([14]; read-out: inhibition (10 μM))?
The inhibition at 10 µM was 8.3%.

What about the inhibition at 10 µM [15, 24] of the same molecule?
Its inhibition at 10 µM is over 90%.

And the inhibition at 10 µM ([15]; read-out: inhibition (10 μM))?
The inhibition at 10 µM was 91.7%.

What about the inhibition at 10 µM [16, 24] of the same molecule?
Its inhibition at 10 µM is 0%.

What about the inhibition at 10 µM ([16]; read-out: inhibition (10 μM)) of the same molecule?
The inhibition at 10 µM was -18.4%.

What about the inhibition at 10 µM [17, 24] of the same molecule?
The inhibition at 10 µM was 0%.

What about the inhibition at 10 µM ([17]; read-out: inhibition (10 μM)) of the same molecule?
Its inhibition at 10 µM is 0.1%.

And the inhibition at 10 µM [18, 24]?
Its inhibition at 10 µM is 0%.

And the inhibition at 10 µM ([18]; read-out: inhibition (10 μM))?
The inhibition at 10 µM was -3.5%.

What about the inhibition at 10 µM [19, 24] of the same molecule?
Its inhibition at 10 µM is 0%.

What about the inhibition at 10 µM ([19]; read-out: inhibition (10 μM)) of the same molecule?
The inhibition at 10 µM was 0.4%.

And the inhibition at 10 µM [20, 24]?
The inhibition at 10 µM was 0%.

What about the inhibition at 10 µM ([20]; read-out: inhibition (10 μM)) of the same molecule?
The inhibition at 10 µM was 2.1%.

And the inhibition at 10 µM [21, 24]?
The inhibition at 10 µM was 50 to 75%.

What about the inhibition at 10 µM ([21]; read-out: inhibition (10 μM)) of the same molecule?
The inhibition at 10 µM was 72.8%.

What about the inhibition at 10 µM [22, 24] of the same molecule?
Its inhibition at 10 µM is 0%.

What about the inhibition at 10 µM ([22]; read-out: inhibition (10 μM)) of the same molecule?
Its inhibition at 10 µM is 32.9%.

And the inhibition at 10 µM [23, 24]?
The inhibition at 10 µM was 0%.

And the inhibition at 10 µM ([23]; read-out: inhibition (10 μM))?
Its inhibition at 10 µM is -5.1%.

With Nc1ncc(-c2cccc3ncsc23)cc1-c1ccc2c(c1)CCNC2=O [Compound I-13, 6-(2-amino-5-(benzo[d]thiazol-7-yl)pyridin-3-yl)-3,4-dihydroisoquinolin-1(2H)-one] as the molecule, how does the “% inhibition (range)” value [1] read?
The value was 0.0%.

What about the “% inhibition (range)” value ([2]; 10 μM) of the same molecule?
Its value is 0.0%.

What about the “inhibition (10 μM)” value [2] of the same molecule?
Its value is 0.3%.

And the “% inhibition (range)” value ([3]; 10 μM)?
Its value is 50-75%.

What about the “inhibition (10 μM)” value [3] of the same molecule?
The value was 59.3%.

What about the inhibition at 10 µM ([4]; read-out: % inhibition (range)) of the same molecule?
The inhibition at 10 µM was 75 to 90%.

And the inhibition at 10 µM ([4]; read-out: inhibition (10 μM))?
The inhibition at 10 µM was 89%.

What about the inhibition at 10 µM ([5]; read-out: % inhibition (range)) of the same molecule?
The inhibition at 10 µM was 0%.

And the inhibition at 10 µM ([5]; read-out: inhibition (10 μM))?
Its inhibition at 10 µM is 8.6%.

What about the “% inhibition (range)” value ([6]; 10 μM) of the same molecule?
Its value is 0.0%.

And the “inhibition (10 μM)” value [6]?
Its value is 1.8%.

And the inhibition at 10 µM ([7]; read-out: % inhibition (range))?
The inhibition at 10 µM was 50 to 75%.

What about the inhibition at 10 µM ([7]; read-out: inhibition (10 μM)) of the same molecule?
Its inhibition at 10 µM is 52.1%.

What about the “% inhibition (range)” value ([8]; 10 μM) of the same molecule?
The value was 0.0%.

And the “inhibition (10 μM)” value [8]?
The value was −20.1%.

What about the inhibition at 10 µM ([9]; read-out: % inhibition (range)) of the same molecule?
Its inhibition at 10 µM is 50 to 75%.

And the inhibition at 10 µM ([9]; read-out: inhibition (10 μM))?
Its inhibition at 10 µM is 53.9%.

And the inhibition at 10 µM ([10]; read-out: % inhibition (range))?
Its inhibition at 10 µM is 0%.

What about the inhibition at 10 µM ([10]; read-out: inhibition (10 μM)) of the same molecule?
The inhibition at 10 µM was -23.1%.

What about the “% inhibition (range)” value ([11]; 10 μM) of the same molecule?
The value was over 90%.

What about the “inhibition (10 μM)” value [11] of the same molecule?
The value was 97.0%.

And the inhibition at 10 µM ([12]; read-out: % inhibition (range))?
The inhibition at 10 µM was 0%.

What about the inhibition at 10 µM ([12]; read-out: inhibition (10 μM)) of the same molecule?
The inhibition at 10 µM was -20.2%.

What about the inhibition at 10 µM ([13]; read-out: % inhibition (range)) of the same molecule?
The inhibition at 10 µM was 0%.

And the inhibition at 10 µM ([13]; read-out: inhibition (10 μM))?
The inhibition at 10 µM was -4.3%.

What about the inhibition at 10 µM ([14]; read-out: % inhibition (range)) of the same molecule?
The inhibition at 10 µM was 0%.

And the inhibition at 10 µM ([14]; read-out: inhibition (10 μM))?
The inhibition at 10 µM was -19.7%.

And the inhibition at 10 µM ([15]; read-out: % inhibition (range))?
The inhibition at 10 µM was over 90%.

What about the inhibition at 10 µM ([15]; read-out: inhibition (10 μM)) of the same molecule?
The inhibition at 10 µM was 92.5%.

And the inhibition at 10 µM ([16]; read-out: % inhibition (range))?
Its inhibition at 10 µM is 0%.

What about the inhibition at 10 µM ([16]; read-out: inhibition (10 μM)) of the same molecule?
Its inhibition at 10 µM is 5.3%.

What about the inhibition at 10 µM ([17]; read-out: % inhibition (range)) of the same molecule?
The inhibition at 10 µM was 0%.

And the inhibition at 10 µM ([17]; read-out: inhibition (10 μM))?
Its inhibition at 10 µM is 4.7%.

What about the inhibition at 10 µM ([18]; read-out: % inhibition (range)) of the same molecule?
The inhibition at 10 µM was 0%.

What about the inhibition at 10 µM ([18]; read-out: inhibition (10 μM)) of the same molecule?
Its inhibition at 10 µM is 12.6%.

What about the inhibition at 10 µM ([19]; read-out: % inhibition (range)) of the same molecule?
Its inhibition at 10 µM is 0%.

And the inhibition at 10 µM ([19]; read-out: inhibition (10 μM))?
Its inhibition at 10 µM is 16.2%.

And the inhibition at 10 µM ([20]; read-out: % inhibition (range))?
Its inhibition at 10 µM is 0%.

What about the inhibition at 10 µM ([20]; read-out: inhibition (10 μM)) of the same molecule?
Its inhibition at 10 µM is -22.4%.

And the inhibition at 10 µM ([21]; read-out: % inhibition (range))?
Its inhibition at 10 µM is 0%.

What about the inhibition at 10 µM ([21]; read-out: inhibition (10 μM)) of the same molecule?
Its inhibition at 10 µM is -28.8%.

What about the inhibition at 10 µM ([22]; read-out: % inhibition (range)) of the same molecule?
The inhibition at 10 µM was 0%.

What about the inhibition at 10 µM ([22]; read-out: inhibition (10 μM)) of the same molecule?
The inhibition at 10 µM was -6.4%.

What about the inhibition at 10 µM ([23]; read-out: % inhibition (range)) of the same molecule?
Its inhibition at 10 µM is 35 to 50%.

And the inhibition at 10 µM ([23]; read-out: inhibition (10 μM))?
Its inhibition at 10 µM is 49.2%.
